Changes are numbered by the printed parent chain. Where no end group is shown, it is not given here.
How the values were obtained:
[1] = biological target: T1, TGR23-1 expressing CHO cells (Homo sapiens, UniProt Q6W5P4); assay: Intracellular Ca ion concentration increasing activity using FLIPR; format: cell-based; details: variety of concentrations
T1 construct: the clones having the cDNA of TGR23-1, which is contained in pTB2173, were selected; expressed in transfected cells; host or cells: hamster CHO/dhfr- cells, vector pAKKO-111H (pAKKO-TGR23-1), clones No. 49 and No. 52
T1 sequence (Q6W5P4 1-371): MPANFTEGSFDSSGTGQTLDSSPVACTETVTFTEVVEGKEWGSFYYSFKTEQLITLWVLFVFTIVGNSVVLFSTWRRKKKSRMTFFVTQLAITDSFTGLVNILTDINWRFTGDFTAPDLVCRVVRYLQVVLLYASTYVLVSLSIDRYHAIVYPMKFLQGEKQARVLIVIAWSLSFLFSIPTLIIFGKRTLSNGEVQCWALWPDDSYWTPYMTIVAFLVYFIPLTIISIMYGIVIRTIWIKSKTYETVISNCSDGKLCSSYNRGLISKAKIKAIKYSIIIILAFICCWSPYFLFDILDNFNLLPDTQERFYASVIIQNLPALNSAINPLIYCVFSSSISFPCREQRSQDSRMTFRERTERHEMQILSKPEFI
Method: (§1) An enhancing activity of intracellular Ca^2+ release was assayed using FLIPR (Molecular Devices, Inc.). The CHO/TGR23-2 cells prepared in Example 1 and selected in Example 2 were plated on 96-well plate at 3×10^4 cells/well and cultured for 24 hours. A loading buffer was prepared by adding 1 vial of Fluo 3-AM to 10 ml of Hanks' solution (pH7.4) containing 2.5 mM Probenecid and 20 mM HEPES (hereafter, Hanks' solution (pH7.4) containing 2.5 mM Probenecid and 20 mM HEPES may be referred to as a washing buffer). The culture medium was discarded from the culture plate and 100 μl/well of the loading buffer were added to the cells. Then, the cells were incubated for 60 minutes in the incubator. After the loading buffer was removed from the culture plate and the cells were washed with the washing buffer, the plate was put in place of FLIPR. A sample was prepared by adding a sample buffer, which 2 mg/ml BSA and 1 mg/ml CHAPS were added to the washing buffer, to lyophilized product, stirring and treating by ultrasonication for 30 minutes, and transferred to 96-well sample plate. This sample plate was also put in place for assay. The enhancing activity of intracellular Ca^2+ release was measured as an increase of fluorescent intensity, which is raised by addition of the sample. Human TGR23-2 ligand (1-20) obtained in Example 17 was administered to TGR23-1 expressing CHO cells and TGR23-2 expressing CHO cells at a variety of concentrations according to the method described in Example 5, and the increasing activity of intracellular Ca ion concentration was determined using FLIPR. […] Rat TGR23-2 ligand (1-18) prepared by the method described in Example 19 and mouse TGR23-2 ligand (1-20) prepared by the method described in Example 20 were administered to TGR23-1 expressing CHO cells and TGR23-2 expressing CHO cells at a variety of concentrations according to the method described in Example 5, and the increasing activity of intracellular Ca ion concentration was determined using FLIPR.

[2] = biological target: T2, TGR23-2 expressing CHO cells (Homo sapiens, UniProt Q6W5P4, N107I/Q344R); assay: as above; format: cell-based; details: variety of concentrations
T2 construct: the clones having the cDNA of TGR23-2, which is contained in pTB2174, were selected; expressed in transfected cells; host or cells: hamster CHO/dhfr- cells, vector pAKKO-111H (pAKKO-TGR23-2)
T2 sequence (Q6W5P4 1-371 N107I/Q344R): T1 sequence (Q6W5P4 1-371) with N107I, Q344R
Method: as §1

[3] = biological target: T3, membrane fraction of TGR23-2 expressing CHO cells (Homo sapiens, UniProt Q6W5P4, N107I/Q344R); assay: GTPγS binding activity in membrane fraction; format: biochemical
T3 construct: the clones having the cDNA of TGR23-2, which is contained in pTB2174, were selected; expressed in transfected cells; host or cells: hamster CHO/dhfr- cells, vector pAKKO-111H (pAKKO-TGR23-2)
T3 sequence (Q6W5P4 1-371 N107I/Q344R): T1 sequence (Q6W5P4 1-371) with N107I, Q344R
Method: Enhancing activity of binding of [^35S]-Guanosine 5′-(γ-thio) triphosphate in the membrane fraction of TGR23-2 expressing CHO cells was measured by the following method. Firstly, it is described about preparation of membrane fraction. Twenty (20) ml of homogenation buffer (10 mM HEPES (pH7.3), 5 mM EDTA, 0.52 mM PMSF, 10 μg/ml pepstatin, 8 μg/ml E64, 20 μg/ml leupeptin) was added to 8×10^7 of TGR23-2 expressing CHO cells, and the cells were disrupted using Polytron (12,000 rpm, 30 seconds×3 times). The cell-disrupted fluids were centrifuged (1,000 g for 15 minutes) to get supernatant. Subsequently the supernatant was ultracentrifuged (Beckman type 30 rotor, 30,000 rpm, one hour), and the precipitate obtained was collected as a membrane fraction of TGR23-2 expressing CHO cells. The GTPγS binding activity was assayed as follows. The membrane fraction of TGR23-2 expressing CHO cells was diluted with membrane dilution buffer (50 mM Tris-HCl buffer (pH7.4), 5 mM MgCl2, 150 mM NaCl, 0.03% NaN3, 0.1% BSA, 1 μM GDP) to get cell membrane fraction solution for assay at the protein concentration of […]. Two (2) μl of 50 nM [^35S]-guanosine 5′-(γ-thio) triphosphate (NEN) and sample were added to 200 μl of cell membrane fraction solution for assay, and the mixture was incubated at 25° C. for one (1) hour. The mixture was filtered, and the filter was washed twice with 1.5 ml of washing buffer (50 mM Tris-HCl buffer (pH7.4), 5 mM MgCl2, 1 mM EDTA, 0.03% NaN3, 0.1% BSA). Then the radioactivity on the filter was measured by liquid scintillation counter. Human TGR23-2 ligand (1-20) prepared by the method described in Example 17, rat TGR23-2 ligand (1-18) prepared by the method described in Example 19 and mouse TGR23-2 ligand (1-20) prepared by the method described in Example 20 were administered to TGR23-2 expressing CHO cells at a variety of concentrations according to the method described above, and the GTPγS binding activity was determined.

Sequence | increase of intracellular Ca ion concentration [1] | increase of intracellular Ca ion concentration [2] | GTPγS binding activity [3]
SFRNGVGSGVKKTSFRRA [rat TGR23-2 ligand (1-18), Ser-Phe-Arg-Asn-Gly-Val-Gly-Ser-Gly-Val-Lys-Lys-Thr-Ser-Phe-Arg-Arg-Ala] | clearly enhance an increase of intracellular Ca ion concentration | clearly enhance an increase of intracellular Ca ion concentration | enhance the GTPγS binding activity
SFRNGVGTGMKKTSFQRAKS [human TGR23-2 ligand (1-20)] | enhances an increase of intracellular Ca ion concentration | enhances an increase of intracellular Ca ion concentration | enhance the GTPγS binding activity
